Measured values reported in paper PMC5822683 (Inflammation, 2014).
Where a SMILES comes first, the peptide text is derived from it.

What was measured:
[1] = system: LPS-stimulated whole human blood; details: 40 μg/ml, LPS 1 μg/ml, 3 h at 37 °C
[2] = system: TNF-α-stimulated whole human blood; details: 40 μg/ml, human TNF-α 10 ng/ml, 6 h at 37 °C, n=4 (Fig. 2)
[3] = system: LPS-stimulated isolated human neutrophils
[4] = system: IL-8-stimulated human neutrophils
[5] = system: LPS-stimulated isolated human neutrophils; details: 50 % donor plasma, 40 μg/ml
[6] = system: LPS-stimulated isolated human leukocytes; details: 40 μg/ml, LPS 1 μg/ml, n=3
rodents = details: compared with L-4F doses studied here (Fig. S4)
[7] = system: animal models of acute inflammation / severe sepsis; details: cited from earlier work
[8] = compared with human apoA-I; ref [37]; cited from earlier work
[9] = system: lipopolysaccharide-binding protein (LBP); details: ref [21]; cited from earlier work
leukocytes = details: ref [24]; cited from earlier work
primary human monocytes = details: ref [28]; cited from earlier work
[10] = system: human neutrophils stimulated by septic patient serum; details: ref [24], cited from earlier work
paraoxonase 1 = details: ref [20], [41]; cited from earlier work
[11] = statement in the discussion, no reference given; cited from earlier work
[12] = ref [21], [48]; cited from earlier work
[13] = system: patients with high-risk cardiovascular disease; details: selected groups of patients with high-risk cardiovascular disease; ref [55], [56]; cited from earlier work
[14] = system: human monocyte-derived macrophages; details: ref [29]; cited from earlier work

CC(=O)N[C@@H](CC(=O)O)C(=O)N[C@@H](Cc1c[nH]c2ccccc12)C(=O)N[C@@H](Cc1ccccc1)C(=O)N[C@@H](CCCCN)C(=O)N[C@@H](C)C(=O)N[C@@H](Cc1ccccc1)C(=O)N[C@@H](Cc1ccc(O)cc1)C(=O)N[C@@H](CC(=O)O)C(=O)N[C@@H](CCCCN)C(=O)N[C@H](C(=O)N[C@@H](C)C(=O)N[C@@H](CCC(=O)O)C(=O)N[C@@H](CCCCN)C(=O)N[C@@H](Cc1ccccc1)C(=O)N[C@@H](CCCCN)C(=O)N[C@@H](CCC(=O)O)C(=O)N[C@@H](C)C(=O)N[C@@H](Cc1ccccc1)C(N)=O)C(C)C [L-4F] (Ac-DWFKAFYDKVAEKFKEAF-NH2)
effect on inflammatory response to LPS (TNF-α and IL-6) ([1]; ELISA, n=4 (Fig. 1)): inhibits inflammatory response to LPS in blood to an equal extent | plasma level of TNF-α ([1]; n=4/group, *P<0.05 vs. saline-treated LPS (Fig. 1A)): reduces plasma levels of TNF-α | plasma level of IL-6 ([1]; n=4/group, *P<0.05 vs. saline-treated LPS (Fig. 1B)): reduces plasma levels of TNF-α (A) and IL-6 | effect on TNF-α-mediated elevation of plasma IL-6 [2]: does not reduce plasma levels of IL-6 | effect of agent alone on CD11b expression and lipid raft abundance [3]: Neither L-4F alone nor apoA-I alone affects CD11b expression and lipid raft abundance | effect on LPS-increased CD11b expression [3]: inhibits this effect (P<0.05 vs. LPS, for L-4F at all time points and for apoA-I at 30 min, Fig. 3A, B) | effect on LPS-increased lipid raft abundance [3]: inhibits this effect (P<0.05 vs. LPS, for L-4F at 1 and 3 h and for apoA-I at 1 h, Fig. 3C, D) | effect on IL-8-induced increase of CD11b expression [4]: only minimal effect | effect on IL-8-induced increase of lipid rafts abundance [4]: only minimal effect | effect on LPS-induced TNF-α levels ([5]; LPS 1 μg/ml, 30 min, 1 h, 3 h (Fig. 5A)): inhibit this effect (P<0.05 vs. LPS, for 30 min and 1 h, Fig. 5A) | effect on LPS-mediated MPO elevation ([5]; LPS 1 μg/ml, 30 min, 1 h, 3 h (Fig. 5B)): only inhibitory effect of L-4F reaches statistical significance (P<0.05 vs. LPS, for 30 min and 3 h, Fig. 5B) | effect on LPS-mediated IL-6 increase ([5]; LPS 1 μg/ml, 3 h, cell media, n=3, ELISA (Fig. 6)): significantly inhibits LPS-mediated IL-6 increase (P<0.05 vs. LPS) | comparison with apoA-I, LPS-mediated increase in IL-6 levels ([5]; LPS-stimulated neutrophils): tended to be superior in inhibiting LPS-mediated increase in IL-6 levels | effect on LPS-mediated chemiluminescence (rate and peak) ([6]; 5 or 50 % donor plasma, lucigenin 10 μM, 3 h at 37 °C, both P<0.05 vs. LPS (Fig. 9)): inhibits the rate as well as peak of LPS-mediated chemiluminescence | inhibition of oxidative stress, L-4F vs. apoA-I ([6]; 50 % plasma, 3 h, NS vs. apoA-I): the inhibitory effects of L-4F and apoA-I are similar | tolerability in rodents (rodents): rodents were able to tolerate L-4F in much higher doses | dose with high efficiency in animal models of severe sepsis ([7]; L-4F, ref [22]–[24]): 10 mg/kg | effect in cecal ligation and puncture model of polymicrobial sepsis ([7]; cecal ligation and puncture, ref [22]): has protective effects | effect in animal models of acute inflammation ([7]; ref [22]–[25]): reduces inflammatory response and improves survival | binding affinity for pro-inflammatory oxidized lipids [8]: binds pro-inflammatory oxidized lipids with higher affinity than human apoA-I | competition with LBP for binding with LPS [9]: compete with lipopolysaccharide-binding protein (LBP) for binding with LPS | inhibition of binding of LPS to leukocytes (leukocytes): inhibit binding of LPS to leukocytes | cholesterol efflux and lipid raft abundance (primary human monocytes): stimulate cholesterol efflux and reduce lipid raft abundance | effective concentration ([10]; concentration at which effective, L-4F): 40 µg/mL | activation of neutrophils by septic patient serum [10]: inhibits activation of human neutrophils stimulated by septic patient serum | HDL-associated paraoxonase 1 activity (paraoxonase 1): increasing HDL-associated paraoxonase 1 activity | water solubility [11]: high water solubility | interaction with LPS (co-localization of Bodipy-LPS and ^14C-L-4F in FPLC fractions) [12]: interaction of LPS and L-4F was strongly suggested

Ac-DWFKAFYDKVAEKFKEAF-NH2 [4F]
anti-inflammatory properties ([7]; ref [19]–[21]): exerts strong anti-inflammatory properties | safety profile in patients [13]: acceptable safety profile | disruption of rafts and responsiveness of macrophages to LPS [14]: attenuating the responsiveness of macrophages to LPS
